Data: ChEMBL document CHEMBL3045915, “Microwave-assisted, one-pot syntheses and fungicidal activity of polyfluorinated 2-benzylthiobenzothiazoles” (2006)

Assays:
Assay type in all cases: functional
Colletotrichum gossypii = assay: Fungicidal activity against Colletotrichum gossypii assessed as inhibition of fungal growth at 50 ug/ml after 48 hr
Dothiorella gregaria = assay: Fungicidal activity against Dothiorella gregaria assessed as inhibition of fungal growth at 50 ug/ml after 48 hr
Botrytis cinerea = assay: Fungicidal activity against Botryotinia fuckeliana Pers assessed as inhibition of fungal growth at 50 ug/ml after 48 hr
Rhizoctonia solani = assay: Fungicidal activity against Rhizoctonia solani assessed as inhibition of fungal growth at 50 ug/ml after 48 hr

Row | SMILES | inhibition at 50 µg/mL (Colletotrichum gossypii) | inhibition at 50 µg/mL (Dothiorella gregaria) | inhibition at 50 µg/mL (Botrytis cinerea) | inhibition at 50 µg/mL (Rhizoctonia solani)
1 | Fc1cccc(F)c1CSc1nc2c(Cl)cc(C(F)(F)F)cc2s1 | 44% | 62% | 67% | 69%
2 | Fc1cccc(F)c1CSc1nc2ccc(F)c(F)c2s1 | 63% | 81% | 69% | 82%
3 | Fc1ccc(CSc2nc3c(Cl)cc(C(F)(F)F)cc3s2)cc1F | 37% | 35% | 67% | 40%
4 | Fc1ccccc1CSc1nc2c(F)cccc2s1 | 67% | 78% | 81% | 82%
5 | Fc1ccc(CSc2nc3ccc(F)c(F)c3s2)cc1F | 80% | 85% | 72% | 85%
6 | Fc1ccc2sc(SCc3ccc(F)c(F)c3)nc2c1 | 74% | 78% | 69% | 86%
7 | Fc1ccccc1CSc1nc2ccc(F)c(F)c2s1 | 74% | 81% | 86% | 84%
8 | Fc1ccc(CSc2nc3c(F)cccc3s2)cc1F | 78% | 89% | 97% | 92%
9 | Fc1cccc(F)c1CSc1nc2c(F)cccc2s1 | 52% | 63% | 78% | 74%
10 | Fc1ccc2sc(SCc3ccccc3F)nc2c1 | 67% | 81% | 83% | 82%
11 | Fc1ccccc1CSc1nc2c(Cl)cc(C(F)(F)F)cc2s1 | 70% | 70% | 83% | 83%
12 | Fc1ccc2sc(SCc3c(F)cccc3F)nc2c1 | 56% | 74% | 78% | 80%
13 | CC(C)(C)C(=O)C(Oc1ccc(Cl)cc1)n1cncn1 (configuration not stated) [TRIADIMEFON] | 95% | 61% | 84% | 90%
